Data published in patent US5256788A, “Moranoline derivatives and their production and the use of moranoline and its derivatives as a stabilizing agent for enzymes” (Nippon Shinyaku Co. Ltd., priority 1989, dated 1993).

Test system: β-glucosidase
Test: Stabilization of β-glucosidase by moranoline and N-methylmoranoline
Format: biochemical
Conditions: 6 mg/ml of the hydrochloride, kept at 60° C.
Description: Test samples were (1) 1 ml of 0.2M buffer solution of β-glucosidase (300 μg/ml) alone, (2) 1 ml of 0.2M buffer solution of β-glucosidase (300 μg/ml) supplemented with 6 mg/ml of moranoline hydrochloride and, (3) 1 ml of 0.2M buffer solution of β-glucosidase (300 μg/ml) supplemented with 6 mg/ml of N-methylmoranoline hydrochloride. These test samples were kept at 60° C. and the residual enzyme activity was measured with passage of time.
For determination of the enzyme activity, there was used a method measuring absorbancy at 400 nm using […] as a substrate.
That is, 200 μl of 0.014M p-nitrophenyl-β-D-glucoside, 200 μl of the enzyme solution taken from each sample for sampling with passage of time which was appropriately diluted, and 600 μl of 0.2M acetate buffer solution (pH 4.5) were reacted at 30° C. for 15 minutes. After 2 ml of 0.1M disodium carbonate was added thereto to terminate the reaction, a color was formed and the color was measured at 400 nm. When absorbancy at the initiation of the reaction was made 100, relative absorbancy in each time was defined to be residual activity.

## OC[C@H]1NC[C@H](O)[C@@H](O)[C@@H]1O [moranoline]
  stabilizing effect (residual activity, FIG. 4): stabilizing effect
